Reference: ChEMBL document CHEMBL5370576, “Design, synthesis and biological evaluation of 2,4,6- trisubstituted triazine derivatives as new nonpeptide small-molecule SIRT5 inhibitors” (Bioorg Med Chem, 2023)
Blank lines part the entries; values can stand above or below the compound they belong to. Activity calls are given as the source filed them. The rule behind the calls is not given here.

Experiments:
[1] = biological target: T1, NAD-dependent protein deacylase sirtuin-5, mitochondrial (Homo sapiens, UniProt Q9NXA8); assay: Inhibition of human recombinant SIRT5 (34 to 269 residues) using Ac-Leu-Gly-Ser-Lys (Su)-AMC as fluorogenic substrate incubated for 2 hrs in presence of NAD+ by fluorescence based analysis
Target sequence in this assay (Q9NXA8 whole entry, the tested form may be a part): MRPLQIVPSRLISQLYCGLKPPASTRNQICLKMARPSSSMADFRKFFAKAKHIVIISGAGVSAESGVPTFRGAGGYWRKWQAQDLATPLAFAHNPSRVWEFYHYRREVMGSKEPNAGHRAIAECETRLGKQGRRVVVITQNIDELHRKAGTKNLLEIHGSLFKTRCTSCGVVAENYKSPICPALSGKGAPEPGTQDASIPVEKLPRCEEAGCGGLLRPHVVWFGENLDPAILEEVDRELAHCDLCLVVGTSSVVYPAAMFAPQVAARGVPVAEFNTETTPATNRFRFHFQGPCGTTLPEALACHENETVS

[2] = biological target: T2, NAD-dependent protein deacetylase sirtuin-1 (Homo sapiens, UniProt Q96EB6); assay: Inhibition of recombinant SIRT1 (unknown origin) using Ac-Arg-Leu-Ile-Lys-(Ac) AMC as substrate in presence of NAD+
T2 sequence (Q96EB6 whole entry): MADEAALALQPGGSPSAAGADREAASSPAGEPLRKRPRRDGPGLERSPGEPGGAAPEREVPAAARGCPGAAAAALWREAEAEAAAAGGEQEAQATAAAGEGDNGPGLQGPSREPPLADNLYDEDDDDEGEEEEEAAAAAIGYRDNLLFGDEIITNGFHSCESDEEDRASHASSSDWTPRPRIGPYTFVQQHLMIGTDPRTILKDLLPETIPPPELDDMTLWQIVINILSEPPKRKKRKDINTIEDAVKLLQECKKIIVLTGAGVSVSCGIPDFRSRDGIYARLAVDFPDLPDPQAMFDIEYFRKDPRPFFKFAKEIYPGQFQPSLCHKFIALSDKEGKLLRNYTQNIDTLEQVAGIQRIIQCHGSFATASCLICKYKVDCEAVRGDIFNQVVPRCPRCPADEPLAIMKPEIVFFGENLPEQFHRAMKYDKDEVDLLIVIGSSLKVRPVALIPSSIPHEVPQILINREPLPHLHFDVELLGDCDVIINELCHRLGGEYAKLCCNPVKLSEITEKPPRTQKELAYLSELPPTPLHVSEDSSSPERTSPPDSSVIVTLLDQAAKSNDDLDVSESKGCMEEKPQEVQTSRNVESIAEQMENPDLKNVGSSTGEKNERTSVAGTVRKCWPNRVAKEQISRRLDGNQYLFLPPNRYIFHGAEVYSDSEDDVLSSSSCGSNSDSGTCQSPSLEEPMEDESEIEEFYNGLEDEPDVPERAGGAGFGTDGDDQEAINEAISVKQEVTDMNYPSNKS

[3] = biological target: T1, NAD-dependent protein deacylase sirtuin-5, mitochondrial; assay: Inhibition of human recombinant SIRT5 (34 to 269 residues) using Ac-Leu-Gly-Ser-Lys (Su)-AMC as fluorogenic substrate incubated for 2 hrs in presence of NAD+ at 200 uM by fluorescence based analysis
Target sequence in this assay (Q9NXA8 whole entry, the tested form may be a part): as the sequence (Q9NXA8 whole entry, the tested form may be a part) above

[4] = biological target: T1, NAD-dependent protein deacylase sirtuin-5, mitochondrial; assay: Competitive inhibition of human recombinant SIRT5 (34 to 269 residues) incubated for 2 hrs in presence of 11 uM of fluorogenic substrate Ac-Leu-Gly-Ser-Lys (Su)-AMC by fluorescence based analysis
Target sequence in this assay (Q9NXA8 whole entry, the tested form may be a part): as the sequence (Q9NXA8 whole entry, the tested form may be a part) above

[5] = biological target: T1, NAD-dependent protein deacylase sirtuin-5, mitochondrial; assay: Inhibition of human recombinant SIRT5 (34 to 269 residues) using Ac-Leu-Gly-Ser-Lys (Su)-AMC as fluorogenic substrate incubated for 2 hrs in presence of NAD+ at 800 uM by fluorescence based analysis
Target sequence in this assay (Q9NXA8 whole entry, the tested form may be a part): as the sequence (Q9NXA8 whole entry, the tested form may be a part) above

[6] = biological target: T3, NAD-dependent protein deacetylase sirtuin-2 (Homo sapiens, UniProt Q8IXJ6); assay: Inhibition of human recombinant SIRT2 using Ac-Glu-Thr-Asp-Lys (Dec)-AM as substrate in presence of NAD+
T3 sequence (Q8IXJ6 whole entry): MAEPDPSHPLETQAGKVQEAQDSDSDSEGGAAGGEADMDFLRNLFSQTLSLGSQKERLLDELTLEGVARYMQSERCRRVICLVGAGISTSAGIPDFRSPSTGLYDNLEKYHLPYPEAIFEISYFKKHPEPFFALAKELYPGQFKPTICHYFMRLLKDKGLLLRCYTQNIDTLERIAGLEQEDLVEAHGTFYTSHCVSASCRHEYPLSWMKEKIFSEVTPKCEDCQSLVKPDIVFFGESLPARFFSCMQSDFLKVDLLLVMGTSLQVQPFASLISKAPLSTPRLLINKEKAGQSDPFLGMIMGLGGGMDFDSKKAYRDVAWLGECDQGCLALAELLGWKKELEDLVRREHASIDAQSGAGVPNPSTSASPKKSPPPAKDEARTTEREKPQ

[7] = biological target: T1, NAD-dependent protein deacylase sirtuin-5, mitochondrial; assay: Inhibition of human recombinant SIRT5 (34 to 269 residues) using Ac-Leu-Gly-Ser-Lys (Su)-AMC as fluorogenic substrate incubated for 2 hrs in presence of NAD+ at 100 uM by fluorescence based analysis
Target sequence in this assay (Q9NXA8 whole entry, the tested form may be a part): as the sequence (Q9NXA8 whole entry, the tested form may be a part) above

[8] = biological target: T1, NAD-dependent protein deacylase sirtuin-5, mitochondrial; assay: Competitive inhibition of human recombinant SIRT5 (34 to 269 residues) incubated for 2 hrs in presence of 33 uM of fluorogenic substrate Ac-Leu-Gly-Ser-Lys (Su)-AMC by fluorescence based analysis
Target sequence in this assay (Q9NXA8 whole entry, the tested form may be a part): as the sequence (Q9NXA8 whole entry, the tested form may be a part) above

[9] = biological target: T1, NAD-dependent protein deacylase sirtuin-5, mitochondrial; assay: Competitive inhibition of human recombinant SIRT5 (34 to 269 residues) incubated for 2 hrs in presence of 100 uM of fluorogenic substrate Ac-Leu-Gly-Ser-Lys (Su)-AMC by fluorescence based analysis
[10] = biological target: T1, NAD-dependent protein deacylase sirtuin-5, mitochondrial; assay: Inhibition of human recombinant SIRT5 (34 to 269 residues) using Ac-Leu-Gly-Ser-Lys (Su)-AMC as fluorogenic substrate incubated for 2 hrs in presence of NAD+ at 50 uM by fluorescence based analysis
[11] = biological target: T1, NAD-dependent protein deacylase sirtuin-5, mitochondrial; assay: Inhibition of human recombinant SIRT5 (34 to 269 residues) using Ac-Leu-Gly-Ser-Lys (Su)-AMC as fluorogenic substrate incubated for 2 hrs in presence of NAD+ at 400 uM by fluorescence based analysis
[12] = biological target: T1, NAD-dependent protein deacylase sirtuin-5, mitochondrial; assay: Competitive inhibition of human recombinant SIRT5 (34 to 269 residues) incubated for 2 hrs in presence of 300 uM of fluorogenic substrate Ac-Leu-Gly-Ser-Lys (Su)-AMC by fluorescence based analysis
[13] = biological target: T1, NAD-dependent protein deacylase sirtuin-5, mitochondrial; assay: Competitive inhibition of human recombinant SIRT5 (34 to 269 residues) using Ac-Leu-GlySer-Lys (Su)-AMC as substrate at 0 to 50 uM by Lineweaver-Burk plot analysis; details: dose 0-50 µM
Target sequence in this assay (Q9NXA8 37-310 limits assumed): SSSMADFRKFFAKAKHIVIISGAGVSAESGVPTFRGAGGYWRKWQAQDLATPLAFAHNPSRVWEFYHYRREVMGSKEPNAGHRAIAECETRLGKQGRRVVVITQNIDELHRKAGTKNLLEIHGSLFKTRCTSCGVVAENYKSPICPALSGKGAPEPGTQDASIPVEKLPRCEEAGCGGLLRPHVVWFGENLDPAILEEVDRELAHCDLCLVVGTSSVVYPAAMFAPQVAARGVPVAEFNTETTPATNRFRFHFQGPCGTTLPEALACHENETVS

[14] = biological target: T1, NAD-dependent protein deacylase sirtuin-5, mitochondrial; assay: Binding affinity to human recombinant SIRT5 (34 to 269 residues) assessed as thermal stabilization by measuring melting temperature at 100 uM and measured after 10 mins by SYPRO orange dye based thermal shift assay
Target sequence in this assay (Q9NXA8 37-310 limits assumed): as above

[15] = biological target: T1, NAD-dependent protein deacylase sirtuin-5, mitochondrial; assay: Binding affinity to human recombinant SIRT5 (34 to 269 residues) assessed as thermal stabilization by measuring change in melting temperature at 100 uM and measured after 10 mins by SYPRO orange dye based thermal shift assay
Target sequence in this assay (Q9NXA8 37-310 limits assumed): as above

[16] = biological target: T1, NAD-dependent protein deacylase sirtuin-5, mitochondrial; assay: Binding affinity to human recombinant SIRT5 (34 to 269 residues) assessed as thermal stabilization by measuring melting temperature at 50 uM and measured after 10 mins by SYPRO orange dye based thermal shift assay
Target sequence in this assay (Q9NXA8 37-310 limits assumed): as above

[17] = biological target: T1, NAD-dependent protein deacylase sirtuin-5, mitochondrial; assay: Binding affinity to human recombinant SIRT5 (34 to 269 residues) assessed as thermal stabilization by measuring change in melting temperature at 50 uM and measured after 10 mins by SYPRO orange dye based thermal shift assay
Target sequence in this assay (Q9NXA8 37-310 limits assumed): as above

IC50 [1]: 18.2 µM
Compound: O=C(O)CCNC(=S)NCCCNc1nc(Nc2ccccc2Cl)nc(NC2CC2)n1

IC50 [1]: 49.9 µM
Compound: Cc1c(Br)cccc1Nc1nc(NCCCNC(=S)NCCC(=O)O)nc(Nc2ccccc2Cl)n1

IC50 [1]: 27 µM
Compound: CC(CCc1ccccc1)Nc1nc(NCCCNC(=S)NCCC(=O)O)nc(Nc2ccccc2Cl)n1 (stereo unspecified)

IC50 [1]: 6.16 µM
Compound: Cc1cccc(Nc2nc(NCCCNC(=S)NCCC(=O)O)nc(Nc3ccccc3Cl)n2)c1Br

IC50 [2]: 21.9 µM
IC50 [3]: 4.68 µM
IC50 [4]: 3.21 µM
IC50 [5]: 6.74 µM
IC50 [6]: 136 µM
IC50 [7]: 3.35 µM
IC50 [8]: 5.88 µM
IC50 [9]: 14.2 µM
IC50 [10]: 2.27 µM
IC50 [1]: 5.38 µM
IC50 [11]: 4.05 µM
IC50 [12]: 29.6 µM
Compound: O=C(O)CCNC(=S)NCCCNc1nc(Nc2ccccc2)nc(Nc2ccccc2Cl)n1

IC50 [1]: 21.4 µM
Compound: O=C(O)CCNC(=S)NCCCNc1nc(Nc2cc(F)cc(F)c2)nc(Nc2ccccc2Cl)n1

inhibition [13]: Active
IC50 [2]: 95.9 µM
IC50 [3]: 3.27 µM
IC50 [4]: 7.93 µM
Tm [14]: 69.7 °C
IC50 [5]: 4.66 µM
IC50 [6]: 111 µM
ΔTm [15]: 3.29 °C
IC50 [7]: 4.83 µM
IC50 [8]: 14.3 µM
IC50 [9]: 29.2 µM
IC50 [10]: 4.77 µM
IC50 [1]: 4.07 µM
IC50 [11]: 3.48 µM
Tm [16]: 69.4 °C
ΔTm [17]: 2.91 °C
IC50 [12]: 42.5 µM
Compound: COc1cc(Nc2nc(NCCCNC(=S)NCCC(=O)O)nc(Nc3ccccc3Cl)n2)cc(OC)c1

IC50 [1]: 9.43 µM
Compound: CC[C@H](Nc1nc(NCCCNC(=S)NCCC(=O)O)nc(Nc2ccccc2Cl)n1)c1ccccc1

IC50 [1]: 21.5 µM
Compound: CC(C)(C)OC(=O)[C@H](Nc1nc(NCCCNC(=S)NCCC(=O)O)nc(Nc2ccccc2Cl)n1)c1ccccc1

IC50 [1]: 25.1 µM
Compound: O=C(O)CCNC(=S)NCCCNc1nc(Nc2ccccc2Cl)nc(NC2CCC2)n1

IC50 [1]: 6.97 µM
Compound: O=C(O)CCNC(=S)NCCCNc1nc(NCCc2ccccc2)nc(Nc2ccccc2Cl)n1

IC50 [1]: 13 µM
Compound: O=C(O)CCNC(=S)NCCCNc1nc(Nc2ccccc2Cl)nc(N2CCCC2c2ccccc2)n1 (stereo unspecified)

IC50 [1]: 19.4 µM
Compound: O=C(O)CCNC(=S)NCCCNc1nc(Nc2ccccc2Cl)nc(NC2CCCC2)n1

IC50 [1]: 14.5 µM
Compound: O=C(O)CCNC(=S)NCCCNc1nc(NCc2ccccc2)nc(Nc2ccccc2Cl)n1
